The values that follow come from PubChem BioAssay (NCI).

Among the test systems are TK-10 renal; HOP-62 NSCLC; SW-620 colon; A549 NSCLC; NCI-H23 lung; SN12C renal; OVCAR-8 ovarian; SK-OV-3 ovarian; SF-539 CNS; CAKI-1 renal; EKVX NSCLC; A498 renal; SF-295 CNS; HL-60(TB) leukemia; HOP-92 NSCLC; NCI/ADR-RES ovarian; MDA-MB-231 breast; MDA-MB-435; MCF7 breast.
Assay in all cases: NCI-60 cell line screen, 48 h

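Compound exposure: 48 hours, 5 concentrations, 96-well plates. TGI: total growth inhibition.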

With `COc1ccc(C(Cc2cc(OC)c(OC)c(OC)c2)C(=O)O)cc1` (stereo unspecified), the TGI in the test on TK-10 renal, in the test on HOP-62 NSCLC, with SW-620 colon, in the test on A549 NSCLC, in the test with NCI-H23 lung and in the test with SN12C renal was greater than 100 µM each time. Further, the TGI with OVCAR-8 ovarian, in the test on SK-OV-3 ovarian, in the test with SF-539 CNS, in the test with CAKI-1 renal, with EKVX NSCLC and with A498 renal was greater than 100 µM throughout. In the test on SF-295 CNS, this compound returned a TGI of 84.8 µM.

As to `COC(=O)C1=C(C(=O)OC)C2C(C)=CC(C)=CN2C(C#N)=C(SC)S1` (stereo unspecified), the TGI with TK-10 renal was 69.8 µM; in the test on HOP-62 NSCLC it was greater than 100 µM; in the test on SW-620 colon it was 42.7 µM; in the test with HL-60(TB) leukemia it was 42.7 µM; in the test with A549 NSCLC, greater than 100 µM; in the test with NCI-H23 lung, 36.4 µM. Moreover, the TGI in the test with SN12C renal is 52.6 µM; with OVCAR-8 ovarian, 65.9 µM; in the test with SK-OV-3 ovarian, greater than 100 µM; in the test on SF-539 CNS, 61.4 µM; in the test on CAKI-1 renal, 41.5 µM; in the test on EKVX NSCLC, 64.9 µM. In the test on SF-295 CNS, this compound yielded a TGI greater than 100 µM.

For the compound `O=C(Cc1ccccc1)NN1C(=O)C(Cl)C1c1ccc([N+](=O)[O-])cc1` (stereo unspecified), the TGI in the test with TK-10 renal, in the test on HOP-62 NSCLC, in the test on SW-620 colon, in the test on HL-60(TB) leukemia, in the test on A549 NSCLC and in the test with NCI-H23 lung was greater than 100 µM each time. Further, the TGI in the test on SN12C renal, in the test on OVCAR-8 ovarian, in the test with SK-OV-3 ovarian, with CAKI-1 renal, with EKVX NSCLC and with SF-295 CNS was greater than 100 µM each time.

With `C=CN1C(=O)OC[C@@H]1c1ccccc1`, the TGI with TK-10 renal is greater than 100 µM; in the test on HOP-62 NSCLC, greater than 100 µM; in the test with SW-620 colon, 37.9 µM; in the test on HOP-92 NSCLC it was greater than 100 µM; in the test with HL-60(TB) leukemia, greater than 100 µM; in the test with A549 NSCLC it was greater than 100 µM. Also, the TGI in the test on NCI-H23 lung, in the test with SN12C renal, with OVCAR-8 ovarian, with SK-OV-3 ovarian, in the test on SF-539 CNS and in the test on CAKI-1 renal was greater than 100 µM in each case. The TGI with EKVX NSCLC, with A498 renal and with SF-295 CNS was greater than 100 µM each time.

As to `Nc1ccc(C(=O)NN2C(=O)C(Cl)C2c2cc(Br)ccc2O)cc1` (stereo unspecified), the TGI with TK-10 renal was greater than 100 µM; in the test with HOP-62 NSCLC it was greater than 100 µM; in the test with SW-620 colon, greater than 100 µM; with HOP-92 NSCLC, greater than 100 µM; with HL-60(TB) leukemia, 78.8 µM; in the test with A549 NSCLC, greater than 100 µM. Further, the TGI with NCI-H23 lung, in the test on SN12C renal, in the test with OVCAR-8 ovarian, with SK-OV-3 ovarian, in the test with SF-539 CNS and in the test on CAKI-1 renal was greater than 100 µM in each case. Further, the TGI in the test with EKVX NSCLC, in the test on A498 renal and in the test on SF-295 CNS was greater than 100 µM each time.

For the compound `COP(=O)(OC)C(=NCc1ccccc1)NNc1ccc([N+](=O)[O-])cc1`, the TGI with TK-10 renal is greater than 100 µM; in the test on HOP-62 NSCLC it was 72.1 µM; in the test with SW-620 colon, greater than 100 µM; in the test with HOP-92 NSCLC, 54.4 µM; in the test on HL-60(TB) leukemia, 46 µM; with A549 NSCLC it was greater than 100 µM. Also, the TGI in the test on NCI-H23 lung is 61.4 µM; with OVCAR-8 ovarian, greater than 100 µM; in the test on SF-539 CNS, 44.7 µM; in the test with CAKI-1 renal, greater than 100 µM; in the test with SF-295 CNS it was 67.4 µM.

Take `COc1ccc(N(C)Sc2ccccc2)cc1`: the TGI in the test on TK-10 renal is greater than 100 µM; in the test with HOP-62 NSCLC it was greater than 100 µM; in the test on SW-620 colon it was greater than 100 µM; in the test with HOP-92 NSCLC, greater than 100 µM; in the test with HL-60(TB) leukemia, 52.3 µM; in the test with A549 NSCLC, greater than 100 µM. Besides, the TGI with NCI-H23 lung was greater than 100 µM; with SN12C renal, 75.3 µM; in the test with OVCAR-8 ovarian it was greater than 100 µM; with SK-OV-3 ovarian it was greater than 100 µM; in the test with SF-539 CNS, 56 µM; with SF-295 CNS, greater than 100 µM.

On to `COc1c(OC)c(N)c2cc(C)c(=O)c(C)cc2c1N`, for which the TGI is greater than 100 µM in the test on TK-10 renal; greater than 100 µM in the test on HOP-62 NSCLC; 35 µM in the test with SW-620 colon; greater than 100 µM in the test with HOP-92 NSCLC; greater than 100 µM in the test on HL-60(TB) leukemia; greater than 100 µM in the test on A549 NSCLC. In addition, the TGI with NCI-H23 lung, with SN12C renal, in the test with OVCAR-8 ovarian, in the test on SK-OV-3 ovarian, with SF-539 CNS and in the test with CAKI-1 renal was greater than 100 µM each time. For the same compound, the TGI in the test with EKVX NSCLC, in the test on A498 renal and with SF-295 CNS was greater than 100 µM throughout.

On to `CN(C(=O)c1ccc(Cl)cc1)C(=S)N1CCN(c2ccccn2)CC1`, for which the TGI in the test with TK-10 renal, in the test on HOP-62 NSCLC, in the test with SW-620 colon, with HOP-92 NSCLC, in the test with HL-60(TB) leukemia and in the test on A549 NSCLC was greater than 100 µM throughout. The TGI with NCI-H23 lung, in the test with SN12C renal, in the test with OVCAR-8 ovarian, with SK-OV-3 ovarian, with SF-539 CNS and in the test on CAKI-1 renal was greater than 100 µM each time. The compound also had a TGI in the test with SF-295 CNS greater than 100 µM.

As for `CCN(CC)c1ccc(C2SCC(=O)N2c2ccc(NC(=O)c3ccc(N4C(=O)CSC4c4ccc(N(CC)CC)cc4)cc3)cc2)cc1` (stereo unspecified), the TGI with TK-10 renal, in the test with HOP-62 NSCLC, with NCI/ADR-RES ovarian, in the test on SW-620 colon, in the test on MDA-MB-231 breast and in the test on HOP-92 NSCLC was greater than 100 µM throughout. For the same compound, the TGI with A549 NSCLC, in the test with MDA-MB-435, with MCF7 breast, with NCI-H23 lung, in the test with SN12C renal and in the test with OVCAR-8 ovarian was greater than 100 µM each time. Moreover, the TGI in the test with SK-OV-3 ovarian, with SF-539 CNS, in the test on CAKI-1 renal, in the test with EKVX NSCLC and in the test with SF-295 CNS was greater than 100 µM throughout.
